Results reported in patent US5493027A, “Anticonvulsive agents and uses thereof” (priority 1993, dated 1996).
“Also recorded” adds a separate entry of the source.

System: maximal electroshock seizures (MES)
Test: animal or person
Format: in vivo, male Carworth Farms number-1 mice
Conditions: 30 minutes, 30 mg/kg, mice i.p.
Experimental: (§1) Compounds were screened for anticonvulsant activity in male Carworth Farms number-1 mice. Test solutions of all compounds were prepared in 30% polyethylene glycol 400, and animals were dosed intraperitoneally at either 30 minutes or 4 hours prior to testing. Testing was conducted on four mice at each of three dose levels (30, 100, and 300 mg/kg).
(§2) Maximal electroshock seizures (MES) were elicited with a 60 cycle alternatiing current of 50-mA intensity (five to seven times that necessary to evoke minimal electroshock threshold seizures). Current was delivered via corneal electrodes for 0.2 s. A drop of 0.9% saline was instilled in the eye prior to application of electrodes. Abolition of the hindlimb tonic extension component of the seizure was defined as protection in the MES test.
as §1, with “Biological testing--Compounds” for “Compounds”, “number-one” for “number-1”, “min” for “minutes”, “h” for “hours”
as §2, with “alternating” for “alternatiing”

For Nc1cc(C(=O)O)nc2cc(Cl)cc(Cl)c12 [4-amino-5,7-dichloro-2-quinoline carboxylate acid], which MES is on record?
The MES was 0/1.

Same assay, conditions: 30 minutes, 100 mg/kg, mice i.p.

How did the MES turn out when Nc1cc(C(=O)O)nc2cc(Cl)cc(Cl)c12 [4-amino-5,7-dichloro-2-quinoline carboxylate acid] was run?
The MES was 0/3.

Same assay, conditions: 30 minutes, 300 mg/kg, mice i.p.

With Nc1cc(C(=O)O)nc2cc(Cl)cc(Cl)c12 [4-amino-5,7-dichloro-2-quinoline carboxylate acid] as the compound, how does the MES read?
Its MES is 0/1.

Same assay, conditions: 4 hours, 30 mg/kg, mice i.p.

For Nc1cc(C(=O)O)nc2cc(Cl)cc(Cl)c12 [4-amino-5,7-dichloro-2-quinoline carboxylate acid], which MES is on record?
Its MES is 0/1.

Same assay, conditions: 4 hours, 100 mg/kg, mice i.p.

Nc1cc(C(=O)O)nc2cc(Cl)cc(Cl)c12 [4-amino-5,7-dichloro-2-quinoline carboxylate acid] was tested. Which MES did it give?
The MES was 0/3.

Same assay, conditions: 4 hours, 300 mg/kg, mice i.p.

With Nc1cc(C(=O)O)nc2cc(Cl)cc(Cl)c12 [4-amino-5,7-dichloro-2-quinoline carboxylate acid] as the compound, how does the MES read?
The MES was 0/1.

Same assay, conditions: Mus musculus, ip; Table 7, value without parentheses = effective dose; read-out: Effective Intraperitoneal Dose, MES

How did the minimal effective dose turn out when CCOC(=O)c1cc2cc(OC)ccc2[nH]1 [5-methoxy-indole-2-ethyl ester, 5-methoxy-indole-2-ethyl carboxylate] was run?
Its minimal effective dose is 300 mg/kg.

Same assay, conditions: Mus musculus, ip; mice, intraperitoneal; read-out: dose active in MES test

How did the minimal effective dose turn out when CCOC(=O)c1cc2cc(OC)ccc2[nH]1 [5-methoxy-indole-2-ethyl ester, 5-methoxy-indole-2-ethyl carboxylate] was run?
Its minimal effective dose is 300 mg/kg.

System: pentylenetetrazole (Metrazol) induced seizures
Test: Subcutaneous pentylenetetrazole (Metrazol) seizure threshold test (Met) in mice
Format: in vivo, male Carworth Farms number-1 mice
Conditions: 30 minutes, 30 mg/kg, mice i.p.
Experimental: as §1
(§3) In the subcutaneous pentylenetetrazole (Metrazol) seizure threshold test(met), 85 mg/kg pentylenetetrazole was administered as a 0.5% solution in the posterior midline. Protection in this test was defined as a failure to observe a single episode of clonic spasms of at least 5 s duration during the 30 minute period following administration of the convulsive agent.
as §1, with “Biological testing--Compounds” for “Compounds”, “number-one” for “number-1”, “min” for “minutes”, “h” for “hours”
as §3, with “test (Met),” for “test(met),”, “min” for “minute”

How did the “Sc MET” value turn out when Nc1cc(C(=O)O)nc2cc(Cl)cc(Cl)c12 [4-amino-5,7-dichloro-2-quinoline carboxylate acid] was run?
Its value is 0/1.

Same assay, conditions: 30 minutes, 100 mg/kg, mice i.p.

With Nc1cc(C(=O)O)nc2cc(Cl)cc(Cl)c12 [4-amino-5,7-dichloro-2-quinoline carboxylate acid] as the compound, how does the “Sc MET” value read?
The value was 0/1.

Same assay, conditions: 30 minutes, 300 mg/kg, mice i.p.

How did the “Sc MET” value turn out when Nc1cc(C(=O)O)nc2cc(Cl)cc(Cl)c12 [4-amino-5,7-dichloro-2-quinoline carboxylate acid] was run?
Its value is 0/1.

Same assay, conditions: 4 hours, 30 mg/kg, mice i.p.

Nc1cc(C(=O)O)nc2cc(Cl)cc(Cl)c12 [4-amino-5,7-dichloro-2-quinoline carboxylate acid] was tested. Which “Sc MET” value did it give?
The value was 0/1.

Same assay, conditions: 4 hours, 100 mg/kg, mice i.p.

Which “Sc MET” value does the source give for Nc1cc(C(=O)O)nc2cc(Cl)cc(Cl)c12 [4-amino-5,7-dichloro-2-quinoline carboxylate acid] here?
Its value is 0/1.

Same assay, conditions: 4 hours, 300 mg/kg, mice i.p.

Which “Sc MET” value does the source give for Nc1cc(C(=O)O)nc2cc(Cl)cc(Cl)c12 [4-amino-5,7-dichloro-2-quinoline carboxylate acid] here?
Its value is 0/1.

Same assay, conditions: Mus musculus, ip; Table 7, value without parentheses = effective dose; read-out: Effective Intraperitoneal Dose, Met

O=C(O)c1cc2cc(Cl)ccc2[nH]1 [5-Cl-indole-2-COOH, 5-chloro-indole-2-carboxylic acid] was tested. Which minimal effective dose did it give?
The minimal effective dose was 100 mg/kg.

CCOC(=O)c1cc2cc(OC)ccc2[nH]1 [5-methoxy-indole-2-ethyl ester, 5-methoxy-indole-2-ethyl carboxylate] was tested. Which minimal effective dose did it give?
The minimal effective dose was 100 mg/kg.

How did the minimal effective dose turn out when CCOC(=O)c1cccc(C(=O)OCC)n1 [2,6-pyridine-di-(ethyl carboxylate), 2,6-pyridine-di(ethyl carboxylate)] was run?
Its minimal effective dose is 100 mg/kg.

Same assay, conditions: Mus musculus, ip; mice, intraperitoneal; read-out: dose active in Met test

How did the minimal effective dose turn out when O=C(O)c1cc2cc(Cl)ccc2[nH]1 [5-Cl-indole-2-COOH, 5-chloro-indole-2-carboxylic acid] was run?
Its minimal effective dose is 100 mg/kg.

With CCOC(=O)c1cc2cc(OC)ccc2[nH]1 [5-methoxy-indole-2-ethyl ester, 5-methoxy-indole-2-ethyl carboxylate] as the compound, how does the minimal effective dose read?
The minimal effective dose was 100 mg/kg.

For CCOC(=O)c1cccc(C(=O)OCC)n1 [2,6-pyridine-di-(ethyl carboxylate), 2,6-pyridine-di(ethyl carboxylate)], which minimal effective dose is on record?
Its minimal effective dose is 100 mg/kg.

Same assay, conditions: mice, intraperitoneal

For O=C(O)c1cc2cc(Cl)ccc2[nH]1 [5-Cl-indole-2-COOH, 5-chloro-indole-2-carboxylic acid], which “Met activity” value is on record?
Its value is “Met protection”.

System: neurological deficit (rotorod)
Test: Rotorod test for neurological deficit (TOX) in mice
Format: in vivo, male Carworth Farms number-1 mice
Conditions: Table 7, value without parentheses = effective dose (neurologic deficit)
Experimental: as §1
Animals were also tested for neurological deficit using the rotorod. After treatment, the animal was placed on a 1 inch diameter knurled plastic rod rotating at 6 rpm. Neurologic deficit was defined as the failure of the animal to remain on the rod for 1 minute.
as §1, with “Biological testing--Compounds” for “Compounds”, “number-one” for “number-1”, “min” for “minutes”, “h” for “hours”
Animals were also tested for neurological deficit using the rotorod. After treatment, the animal was placed on a 1 inch diameter knurled plastic rod rotating at 6 rpm. Neurologic deficit was defined as the failure of the animal to remain on the rod for 1 min.

Which “Effective Intraperitoneal Dose, Rotorod” value does the source give for CCOC(=O)c1cc2cc(OC)ccc2[nH]1 [5-methoxy-indole-2-ethyl ester, 5-methoxy-indole-2-ethyl carboxylate] here?
The value was 300 mg/kg.

Same assay, conditions: mice, intraperitoneal

Which “dose causing neurological deficit on rotorod” value does the source give for CCOC(=O)c1cc2cc(OC)ccc2[nH]1 [5-methoxy-indole-2-ethyl ester, 5-methoxy-indole-2-ethyl carboxylate] here?
The value was 300 mg/kg.

Same assay, conditions: mouse, in vivo, ip

How did the “Effective Intraperitoneal Dose, Rotorod” value turn out when O=C(O)c1cc2cc(Cl)ccc2[nH]1 [5-Cl-indole-2-COOH, 5-chloro-indole-2-carboxylic acid] was run?
The value was 300 mg/kg.

And the “dose causing neurological deficit on rotorod” value?
The value was 300 mg/kg.

What does the source list for CCOC(=O)c1cccc(C(=O)OCC)n1 [2,6-pyridine-di-(ethyl carboxylate), 2,6-pyridine-di(ethyl carboxylate)]?
Effective Intraperitoneal Dose, Rotorod: 300 mg/kg; dose causing neurological deficit on rotorod: 300 mg/kg

Target: T1, strychnine-insensitive glycine binding site of the NMDA receptor (Rattus norvegicus, UniProt P35439)
T1 construct: Membranes were prepared from rat cerebral cortex; from tissue; host or cells: rat cerebral cortex, "buffy coat" membranes
Test: Inhibition of [3H]glycine specific binding (strychnine-insensitive) in rat cerebral cortex membranes
Conditions: 10 uM compound
Experimental: Binding Studies--Inhibition of [^3 H]glycine specific binding was assayed using [^3 H]glycine (43 Ci/mmol) obtained from DuPont-New England Nuclear. […] Membranes were prepared from rat cerebral cortex and assays were conducted in Na-free 50 mM HEPES (Sigma) at pH 7.4. Membranes were incubated in a final volume of 1 ml with 20 nM [^3 H]glycine and a 10 uM concentration of the test compound. Although experience has shown that [^3 H]glycine binding in this preparation is strychnine insensitive, 10 uM strychnine was added to the assay mixtures to eliminate the possibility that any effects studied could be mediated through a strychnine-sensitive process. Incubation was continued for 20 min at 4° C. Non-specific binding was determined in the presence of 1 mM glycine and subtracted. All conditions were tested in triplicate in 3 different assays. Binding was terminated using a Brandel M-24C cell harvester employing rapid filtration through GF/C glass fiber filters pre-soaked in 1% (V/V) polyethylenimine. Filters were washed twice with 5 ml buffer cooled to 4° C. Radioactivity bound to the filters was determined with a Beckman LS-500OTD liquid scintillation counter.

How did the “[3H]glycine binding inhibition” value turn out when O=C(O)c1cc2cc(Cl)ccc2[nH]1 [5-Cl-indole-2-COOH, 5-chloro-indole-2-carboxylic acid] was run?
Its value is “binding competition similar to that seen with the 5-fluoro derivative”.

CCOC(=O)c1cc2cc(OC)ccc2[nH]1 [5-methoxy-indole-2-ethyl ester, 5-methoxy-indole-2-ethyl carboxylate] was tested. Which “[3H]glycine binding inhibition” value did it give?
The value was “did not compete for [^3 H]glycine binding; also recorded: did not inhibit [^3 H]glycine binding”.

For CCOC(=O)c1cccc(C(=O)OCC)n1 [2,6-pyridine-di-(ethyl carboxylate), 2,6-pyridine-di(ethyl carboxylate)], which “[3H]glycine binding inhibition” value is on record?
Its value is “potent [^3 H]glycine displacement”.

Same assay, conditions: 10 uM compound; listed as diethyl ester of pyridine-2,6-dicarboxylic acid

For CCOC(=O)c1cccc(C(=O)OCC)n1 [2,6-pyridine-di-(ethyl carboxylate), 2,6-pyridine-di(ethyl carboxylate)], which “[3H]glycine binding inhibition” value is on record?
Its value is “inhibited glycine binding”.

System: seizures induced by electroshock and pentylenetetrazole
Test: Anticonvulsant testing, overall (MES and Met)
Format: in vivo, male Carworth Farms number-1 mice
Conditions: Mus musculus, ip; mice, intraperitoneal; read-out: dose level with anticonvulsant activity (test not given)
Experimental: as §1, §2, §3
as §1, with “Biological testing--Compounds” for “Compounds”, “number-one” for “number-1”, “min” for “minutes”, “h” for “hours”
as §2, with “alternating” for “alternatiing”
as §3, with “test (Met),” for “test(met),”, “min” for “minute”

CCOC(=O)c1cccc(C(=O)OCC)n1 [2,6-pyridine-di-(ethyl carboxylate), 2,6-pyridine-di(ethyl carboxylate)] was tested. Which minimal effective dose did it give?
The minimal effective dose was 100 mg/kg.

Same assay, conditions: Phase I Identification: mice, i.p.; classes not defined in the patent

How did the CLASS turn out when Nc1cc(C(=O)O)nc2cc(Cl)cc(Cl)c12 [4-amino-5,7-dichloro-2-quinoline carboxylate acid] was run?
Its CLASS is 3.

Same assay, conditions: mice, intraperitoneal

Which “anticonvulsant activity (words)” value does the source give for CCOC(=O)c1cccc(C(=O)OCC)n1 [2,6-pyridine-di-(ethyl carboxylate), 2,6-pyridine-di(ethyl carboxylate)] here?
Its value is “had anticonvulsant activity”.

How did the “anticonvulsant activity (words)” value turn out when Nc1cc(C(=O)O)nc2cc(Cl)cc(Cl)c12 [4-amino-5,7-dichloro-2-quinoline carboxylate acid] was run?
Its value is “lack of anticonvulsive activity”.
